Measurements as given in patent US11110082B2, “Tyrosine kinase inhibitors” (Rigel Pharmaceuticals, Inc., priority 2016, dated 2021).

Target: T1, MerTK (Homo sapiens, UniProt Q12866)
T1 construct: Seed HUVECs (10K cells/well) in EBM-2 complete media; host or cells: HUVEC (primary human umbilical vein endothelial cells)
T1 sequence (Q12866 21-999): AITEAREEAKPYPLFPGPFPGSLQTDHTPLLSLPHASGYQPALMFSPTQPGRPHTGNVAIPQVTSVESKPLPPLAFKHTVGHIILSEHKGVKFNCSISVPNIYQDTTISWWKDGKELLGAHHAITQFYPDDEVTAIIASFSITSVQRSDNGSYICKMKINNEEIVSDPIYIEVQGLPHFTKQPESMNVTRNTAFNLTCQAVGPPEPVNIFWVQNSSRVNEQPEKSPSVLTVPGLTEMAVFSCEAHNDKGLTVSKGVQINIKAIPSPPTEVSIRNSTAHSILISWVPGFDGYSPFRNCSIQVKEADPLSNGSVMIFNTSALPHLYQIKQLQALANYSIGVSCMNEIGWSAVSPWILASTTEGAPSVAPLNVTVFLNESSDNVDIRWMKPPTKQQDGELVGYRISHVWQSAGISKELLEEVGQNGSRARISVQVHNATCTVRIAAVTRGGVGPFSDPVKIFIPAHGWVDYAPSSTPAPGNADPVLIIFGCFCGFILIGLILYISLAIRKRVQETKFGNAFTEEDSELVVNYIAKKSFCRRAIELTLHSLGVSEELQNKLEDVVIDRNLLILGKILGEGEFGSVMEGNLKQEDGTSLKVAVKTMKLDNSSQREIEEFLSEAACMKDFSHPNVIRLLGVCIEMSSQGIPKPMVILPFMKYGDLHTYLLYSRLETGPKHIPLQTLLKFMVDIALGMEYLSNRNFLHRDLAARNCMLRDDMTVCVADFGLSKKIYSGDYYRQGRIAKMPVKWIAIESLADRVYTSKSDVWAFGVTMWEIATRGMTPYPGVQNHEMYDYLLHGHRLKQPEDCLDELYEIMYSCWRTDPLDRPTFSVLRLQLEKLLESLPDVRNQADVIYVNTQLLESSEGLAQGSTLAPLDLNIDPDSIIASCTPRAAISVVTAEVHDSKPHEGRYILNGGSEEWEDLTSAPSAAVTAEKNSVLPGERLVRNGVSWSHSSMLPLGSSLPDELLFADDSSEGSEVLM
Assay: PAKT HTRF-HUVEC assay (pAkt Ser473 HTRF after anti-human MerTK-XL stimulation)
Format: cell-based
Details: HUVEC cells, 1 hour compound, stimulated with anti-human MerTK-XL 1 ug/mL for 10 minutes, read-out: inhibition of MerTK
Protocol: Example 4: PAKT HTRF-HUVEC Assay Phospho Akt (Ser473) Assay kit-10,000 tests (Cisbio US, 64[…]) HUVEC cells (Lonza, CC-2519) Anti-human MerTK antibody (Clone 125518) (R&D Systems, MAB8912) Method Seed HUVECs (10K cells/well) in EBM-2 complete media (EBM-2 basal medium plus EGM-2 BulletKit supplements) overnight at 37° C., 5% CO2 in Costar 96-well white clear-bottom plates. Remove culture media and starve cells for 3-4 hours in 50 μL/well EBM-2 basal medium. Perform serial dilution of compounds in DMSO from 2.5 mM in 4-fold dilutions, and then dilute 1:125 in EBM-2 basal media. Mix 50 μL/well 2x compounds with 50 μL/well HUVECs in duplicate in Costar 96-well white clear-bottom plates. Incubate plates for 1 hour at 37° C., 5% CO2. Cross-link anti-human MerTK antibody to Biotin-SP-conjugated anti-mouse IgG antibody (1:1) to give final concentrations of 5 ug/mL of anti-human MerTK-XL. Stimulate HUVECs with 25 μL/well 5x anti-human MerTK-XL to give final concentrations of 1 ug/mL for 10 minutes at 37° C., 5% CO2. Completely remove media and lyse HUVECs with 40 uL/WELL per well of Cisbio HTRF 1× lysis buffer. Performed pAkt(Ser473) HTRF assay in ProxiPlate-384 Plus, white 384-shallow well microplate according to the vendor protocol and read plates with a SpectralMax Paradigm plate reader. Enter the HTRF values into Athena (Rigel) for curve fitting, EC50 calculation, and database storage.

EC50 | Structure (SMILES)
10.9 nM | O=c1c2cc(CN3CCN(c4ccncn4)CC3)ccc2c2cnc(NC3CCC3)nc2n1[C@H]1CC[C@H](O)CC1 [Compound 226, trans-3-(Cyclobutylamino)-5-(4-hydroxycyclohexyl)-8-((4-(pyrimidin-4-yl)piperazin-1-yl)methyl)pyrimido[4,5-c]isoquinolin-6(5H)-one]
415 nM | O=c1c2cc(OCCCN3CCOCC3)ccc2c2cnc(NCC3CC3)nc2n1[C@H]1CC[C@H](O)CC1 [Compound 208, trans-3-((Cyclopropylmethyl)amino)-5-(4-hydroxycyclohexyl)-8-(3-morpholinopropoxy)pyrimido[4,5-c]isoquinolin-6(5H)-one]
25.9 nM | CCOC(=O)C1CCN(Cc2ccc3c(c2)c(=O)n([C@H]2CC[C@H](O)CC2)c2nc(NCC4CC4)ncc32)CC1 [Compound 50, trans-Ethyl 1-((3-((Cyclopropylmethyl)amino)-5-(4-hydroxycyclohexyl)-6-oxo-5,6-dihydropyrimido[4,5-c]isoquinolin-8-yl)methyl)piperidine-4-carboxylate]
13.2 nM | CCC(F)(F)CNc1ncc2c3ccc(CN4CCN(C(C)(C)C)CC4)cc3c(=O)n([C@H]3CC[C@H](O)CC3)c2n1 [Compound 198, trans-8-((4-(tert-Butyl)piperazin-1-yl)methyl)-3-((2,2-difluorobutyl)amino)-5-(4-hydroxycyclohexyl)pyrimido[4,5-c]isoquinolin-6(5H)-one]
2040 nM | CCCCNc1ncc2c3ccc(CN4CCN(C)CC4)cc3c(=O)n(CC3CCC(O)CC3)c2n1 (stereo not drawn) [Compound 6, 3-(Butylamino)-5-((4-hydroxycyclohexyl)methyl)-8-((4-methylpiperazin-1-yl)methyl)pyrimido[4,5-c]isoquinolin-6(5H)-one]
72.1 nM | CC(C)Nc1ncc2c3ccc(CN4CCN(C)CC4)cc3c(=O)n([C@H]3CC[C@H](O)CC3)c2n1 [Compound 195, trans-5-(4-Hydroxycyclohexyl)-3-(isopropylamino)-8-((4-methylpiperazin-1-yl)methyl)pyrimido[4,5-c]isoquinolin-6(5H)-one]
149 nM | O=c1c2cc(CN3CCOCC3)ccc2c2cnc(NCC3CC3)nc2n1[C@H]1CC[C@H](O)CC1 [Compound 45, trans-3-((Cyclopropylmethyl)amino)-5-(4-hydroxycyclohexyl)-8-(morpholinomethyl)pyrimido [4,5-c]isoquinolin-6(5H)-one]
50.7 nM | O=c1c2cc(CN3CCN(CC(F)(F)F)CC3)ccc2c2cnc(NCC3CC3)nc2n1[C@H]1CC[C@H](O)CC1 [Compound 40, trans-3-((Cyclopropylmethyl)amino)-5-(4-hydroxycyclohexyl)-8-((4-(2,2,2-trifluoroethyl)piperazin-1-yl)methyl)pyrimido[4,5-c]isoquinolin-6(5H)-one]
68.8 nM | CCCCNc1ncc2c3ccc(CN4CCN(C)CC4)cc3c(=O)n([C@H]3CC[C@H](C(=O)NC)CC3)c2n1 [Compound 138, trans-4-(3-(Butylamino)-8-((4-methylpiperazin-1-yl)methyl)-6-oxopyrimido[4,5-c]isoquinolin-5(6H)-yl)-N-methylcyclohexane-1-carboxamide]
10.8 nM | CC(C)(C)N1CCN(Cc2ccc3c(c2)c(=O)n([C@H]2CC[C@H](O)CC2)c2nc(NC4CC(F)(F)C4)ncc32)CC1 [Compound 199, trans-8-((4-(tert-Butyl)piperazin-1-yl)methyl)-3-((3,3-difluorocyclobutyl)amino)-5-(4-hydroxycyclohexyl)pyrimido[4,5-c]isoquinolin-6(5H)-one]
16.7 nM | CN1CCN(Cc2ccc3c(c2)c(=O)n([C@H]2CC[C@H](O)CC2)c2nc(NCCC4CC4)ncc32)CC1 [Compound 26, trans-3-((2-Cyclopropylethyl)amino)-5-(4-hydroxycyclohexyl)-8-((4-methylpiperazin-1-yl)methyl)pyrimido[4,5-c]isoquinolin-6(5H)-one]
68 nM | CCCCNc1ncc2c3ccc(CN4CCN(C)CC4)cc3c(=O)n([C@H]3CC[C@@](C)(O)CC3)c2n1 [Compound 17, cis-3-(Butylamino)-5-(4-hydroxy-4-methylcyclohexyl)-8-((4-methylpiperazin-1-yl)methyl)pyrimido[4,5-c]isoquinolin-6(5H)-one]
7.4 nM | CN1CCN(Cc2ccc3c(c2)c(=O)n(C2CCC(C)(C)CC2)c2nc(NCC4CCC4)ncc32)CC1 [Compound 146]
326 nM | O=c1c2ccccc2c2cnc(NCC3CCC3)nc2n1[C@H]1CC[C@H](O)CC1 [Compound 117, trans-3-((Cyclobutylmethyl)amino)-5-(4-hydroxycyclohexyl)pyrimido [4,5-c]isoquinolin-6(5H)-one]
30.7 nM | O=c1c2cc(CN3CCOCC3)ccc2c2cnc(NCC3CCC3)nc2n1[C@H]1CC[C@H](O)CC1 [Compound 21, trans-3-((Cyclobutylmethyl)amino)-5-(4-hydroxycyclohexyl)-8-(morpholinomethyl)pyrimido [4,5-c]isoquinolin-6(5H)-one]
149 nM | O=c1c2cc(CN3CCOCC3)ccc2c2cnc(NCC3CC3)nc2n1[C@H]1CC[C@H](O)CC1 [Compound 155]
130 nM | CCCCNc1ncc2c3ccc(CN4CCN(C)CC4)cc3c(=O)n([C@H]3CC[C@H](N(C)C)C3)c2n1 [Compound 236, 3-(butylamino)-5-((1S,3S)-3-(dimethylamino)cyclopentyl)-8-((4-methylpiperazin-1-yl)methyl)pyrimido[4,5-c]isoquinolin-6(5H)-one]
187 nM | CCCCNc1ncc2c3ccc(CN4CCN(C)CC4)cc3c(=O)n([C@H]3CC[C@H](C(=O)NCC4CC4)CC3)c2n1 [Compound 141, trans-4-(3-(Butylamino)-8-((4-methylpiperazin-1-yl)methyl)-6-oxopyrimido[4,5-c]isoquinolin-5(6H)-yl)-N-(cyclopropylmethyl)cyclohexane-1-carboxamide]
11900 nM | O=c1c2cc(CN3CC[N+]4([O-])CCC3CC4)ccc2c2cnc(NCC3CC3)nc2n1[C@H]1CC[C@H](O)CC1 [Compound 162]
123 nM | O=c1c2cc(N3CCN4CCC[C@H]4C3)ccc2c2cnc(NCC3CC3)nc2n1[C@H]1CC[C@H](O)CC1 [Compound 102, trans-3-((Cyclopropylmethyl)amino)-8-((S)-hexahydropyrrolo[1,2-a]pyrazin-2(1H)-yl)-5-(4-hydroxycyclohexyl)pyrimido [4,5-c]isoquinolin-6(5H)-one]
53.8 nM | O=c1c2cc(CN3CCC(N4CCCC4)CC3)ccc2c2cnc(NCC3CC3)nc2n1[C@H]1CC[C@H](O)CC1 [Compound 149]
26.6 nM | O=c1c2cc(CN3CCC(O)(c4ccncc4)CC3)ccc2c2cnc(NCC3CC3)nc2n1[C@H]1CC[C@H](O)CC1 [Compound 228, trans-3-((Cyclopropylmethyl)amino)-8-((4-hydroxy-4-(pyridin-4-yl)piperidin-1-yl)methyl)-5-(4-hydroxycyclohexyl)pyrimido[4,5-c]isoquinolin-6(5H)-one]
98 nM | CCCCNc1ncc2c3ccc(CN4CCN(C)CC4)cc3c(=O)n([C@H]3CC[C@@H](O)CC3)c2n1 [Compound 5, cis-3-(Butylamino)-5-(4-hydroxycyclohexyl)-8-((4-methylpiperazin-1-yl)methyl)pyrimido[4,5-c]isoquinolin-6(5H)-one]
51 nM | CCCCNc1ncc2c3ccc(N4CCN(C)CC4)cc3c(=O)n(C3CC4(CC(O)C4)C3)c2n1 (stereo not drawn) [Compound 88, 3-(Butylamino)-5-(6-hydroxyspiro[3.3]heptan-2-yl)-8-(4-methylpiperazin-1-yl)pyrimido[4,5-c]isoquinolin-6(5H)-one]
